This note sets out measurements from PubChem BioAssay (NCI).

Among the test systems are ACHN renal; SNB-19 CNS; PC-3 prostate; OVCAR-3 ovarian; MALME-3M melanoma; OVCAR-4 ovarian; IGROV1 ovarian; UO-31 renal; MOLT-4 leukemia; M14 melanoma; UACC-257 melanoma; HS 578T breast; KM12 colon; T-47D breast; K-562 leukemia; NCI-H226 lung; MDA-MB-231 breast; SW-620 colon; NCI-H522 lung; NCI/ADR-RES ovarian.
What all share (test): inhibition of tumour cell growth, NCI panel, 48 h

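48-hour exposure; five concentrations; linearly interpolated endpoints. TGI: concentration producing complete growth inhibition.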

For `c1ccc2c(c1)c1c3c(c4c(n32)=NCCN4)CCC1`, the TGI with ACHN renal, in the test on SNB-19 CNS, in the test with PC-3 prostate, with OVCAR-3 ovarian, in the test with MALME-3M melanoma and in the test on OVCAR-4 ovarian was above 100 µM throughout. Moreover, the TGI with IGROV1 ovarian was above 100 µM; with UO-31 renal it was above 100 µM; in the test with MOLT-4 leukemia, 60.9 µM; in the test with M14 melanoma, above 100 µM; in the test on UACC-257 melanoma, above 100 µM; in the test on HS 578T breast, above 100 µM. Further, the TGI is above 100 µM in the test with KM12 colon; 92.1 µM in the test on T-47D breast; above 100 µM with K-562 leukemia; 80.9 µM with NCI-H226 lung; 98.9 µM with MDA-MB-231 breast; above 100 µM in the test with SW-620 colon. Besides, the figures for the TGI in the test with NCI-H522 lung and in the test with NCI/ADR-RES ovarian were 61.2 µM and 99.7 µM, respectively.

For the molecule `CN(C)c1ccc(/C=N/c2nc3cc4sc(/N=C/c5ccc(N(C)C)cc5)nc4cc3s2)cc1`, the TGI in the test on ACHN renal, in the test on SNB-19 CNS, in the test on PC-3 prostate, in the test with OVCAR-3 ovarian, in the test on MALME-3M melanoma and with OVCAR-4 ovarian was above 100 µM throughout. For the same molecule, the TGI with IGROV1 ovarian is above 100 µM; in the test with UO-31 renal it was above 100 µM; in the test on MOLT-4 leukemia, above 100 µM; in the test with M14 melanoma it was above 100 µM; with UACC-257 melanoma, above 100 µM; in the test on HS 578T breast it was 92.4 µM. Further, the TGI in the test with KM12 colon, with T-47D breast, in the test on K-562 leukemia, in the test with NCI-H226 lung, in the test with MDA-MB-231 breast and with SW-620 colon was above 100 µM each time. Moreover, the TGI with NCI-H522 lung and with NCI/ADR-RES ovarian was above 100 µM each time.

As for `OCCCCn1cc(Cn2ncc3c(NCc4ccccc4)ncnc32)nn1`, the TGI with ACHN renal, with SNB-19 CNS, in the test on PC-3 prostate, with OVCAR-3 ovarian, in the test on MALME-3M melanoma and in the test with OVCAR-4 ovarian was above 100 µM in each case. For the same molecule, the TGI with IGROV1 ovarian, with UO-31 renal, in the test with MOLT-4 leukemia, in the test on M14 melanoma, in the test on UACC-257 melanoma and in the test with HS 578T breast was above 100 µM throughout. Moreover, the TGI in the test with KM12 colon, with T-47D breast, in the test with K-562 leukemia, with NCI-H226 lung, in the test with MDA-MB-231 breast and in the test on SW-620 colon was above 100 µM each time. Besides, the TGI in the test with NCI-H522 lung and in the test on NCI/ADR-RES ovarian was above 100 µM each time.

For the molecule `O=S(=O)(O)c1ccc2c(N=Nc3ccc(S(=O)(=O)O)c4ccccc34)c(O)c(S(=O)(=O)O)cc2c1`, the TGI with ACHN renal, with SNB-19 CNS, in the test with PC-3 prostate, in the test on OVCAR-3 ovarian, in the test on MALME-3M melanoma and in the test on OVCAR-4 ovarian was above 100 µM each time. Also, the TGI with IGROV1 ovarian, in the test with UO-31 renal, in the test on MOLT-4 leukemia, with M14 melanoma, in the test with UACC-257 melanoma and with HS 578T breast was above 100 µM each time. Also, the TGI in the test on KM12 colon, in the test with T-47D breast, in the test on K-562 leukemia, in the test with NCI-H226 lung, in the test with MDA-MB-231 breast and with SW-620 colon was above 100 µM each time. The TGI with NCI-H522 lung and in the test with NCI/ADR-RES ovarian was above 100 µM in each case.

Turning to `Nc1nc(Cl)c2ncn(Cc3cccc(CCl)c3)c2n1`, the TGI with ACHN renal is 12.4 µM; in the test with SNB-19 CNS, 20.6 µM; in the test with PC-3 prostate, 26.4 µM; with OVCAR-3 ovarian it was 3.74 µM; in the test with MALME-3M melanoma it was 18.1 µM; in the test with OVCAR-4 ovarian, 5.07 µM. Besides, the TGI with IGROV1 ovarian was 12.3 µM; with UO-31 renal, 33.7 µM; in the test with MOLT-4 leukemia it was above 30.8 µM; with M14 melanoma, 12.9 µM; in the test on UACC-257 melanoma it was 20.7 µM; in the test on HS 578T breast it was 36.9 µM. Also, the TGI was 16 µM with KM12 colon; 42.1 µM with T-47D breast; above 51 µM with K-562 leukemia; 26.9 µM with NCI-H226 lung; 27.6 µM in the test with MDA-MB-231 breast; 11.9 µM in the test on SW-620 colon. The results for the TGI with NCI-H522 lung and in the test on NCI/ADR-RES ovarian were 7.03 µM and 11.5 µM, respectively.

Take `COC(=O)c1c(O)ccc2c1c1c(n2Cc2ccccc2OC)C(=O)c2ccccc2C1=O`: the TGI in the test with ACHN renal was 29.7 µM; in the test with SNB-19 CNS it was 95.9 µM; with PC-3 prostate it was 24.5 µM; with OVCAR-3 ovarian, 23 µM; in the test on MALME-3M melanoma, 40.5 µM; with OVCAR-4 ovarian it was 26.9 µM. For the same molecule, the TGI in the test on IGROV1 ovarian was 28.3 µM; with UO-31 renal, 36.9 µM; in the test with MOLT-4 leukemia, 1.42 µM; with M14 melanoma it was 22.6 µM; in the test with UACC-257 melanoma it was 55.1 µM; in the test on HS 578T breast it was 53.2 µM. The TGI was 23.4 µM in the test on KM12 colon; 9.58 µM with T-47D breast; 17.3 µM in the test with K-562 leukemia; 39.3 µM in the test on NCI-H226 lung; 54.9 µM with MDA-MB-231 breast; 29.8 µM in the test on SW-620 colon. For the same molecule, the TGI with NCI-H522 lung was determined as 26.8 µM; in the test with NCI/ADR-RES ovarian, 39.2 µM.

With `CC(NC1=CC(=O)c2cccnc2C1=O)C(O)c1ccccc1` (stereo not given), the TGI in the test on ACHN renal was found to be 14.5 µM; in the test on SNB-19 CNS, 5.66 µM; in the test with PC-3 prostate, 10.6 µM; in the test with OVCAR-3 ovarian, 6 µM; with MALME-3M melanoma, 2.94 µM; in the test on OVCAR-4 ovarian, 11.1 µM. Moreover, the TGI with IGROV1 ovarian was determined as 6.18 µM; in the test with UO-31 renal, 9.49 µM; with MOLT-4 leukemia, 22.4 µM; with M14 melanoma, 3.12 µM; with UACC-257 melanoma, 2.84 µM; with HS 578T breast it was 8.14 µM. Further, the TGI with KM12 colon was 27.8 µM; in the test on T-47D breast, 18.7 µM; in the test on K-562 leukemia, 5.93 µM; in the test on NCI-H226 lung, 4.44 µM; in the test with MDA-MB-231 breast, above 46.3 µM; in the test with SW-620 colon, 3.89 µM. The values for the TGI with NCI-H522 lung and in the test on NCI/ADR-RES ovarian were 3.57 µM and 24.2 µM, respectively.
